Data from US9504729B2, “Antiangiogenic small molecules and methods of use” (The United States of America, as represented by the …, priority 2009, dated 2016).

How the values were obtained:
[1] = molecular target: FGFR1 (Homo sapiens, UniProt P11362); assay: SelectScreen kinase activity profiling, FGFR1; assay type: biochemical; set-up: concentration or dose not given beside the values; details: for Mean % Inhibition: mean of two independent trials
Source text: To characterize the RTK inhibitory activity of the antiangiogenic SMs described herein, 36 compounds were chosen and screened using Invitrogen's SelectScreen® kinase activity profiling service (described on-line at tools.invitrogen.com/content.cfm?pageid=10413#selection). VEGFR1 and FGFR2 RTK inhibitory activities were studied. […] Overall, a small minority of the SMs tested had any substantial kinase inhibitory activity. This observation supports a mechanism of antiangiogenic action other than RTK inhibition for most of the SMs described herein.

[2] = molecular target: KDR(VEGFR2) (Homo sapiens, UniProt P35968); assay: SelectScreen kinase activity profiling, KDR(VEGFR2); assay type: biochemical; set-up: % Inhibition / Mean % Inhibition: concentration or dose not given beside the values; details: KDR(VEGFR2); for Mean % Inhibition: mean of two independent trials
Sequence of KDR(VEGFR2) (P35968 20-1356): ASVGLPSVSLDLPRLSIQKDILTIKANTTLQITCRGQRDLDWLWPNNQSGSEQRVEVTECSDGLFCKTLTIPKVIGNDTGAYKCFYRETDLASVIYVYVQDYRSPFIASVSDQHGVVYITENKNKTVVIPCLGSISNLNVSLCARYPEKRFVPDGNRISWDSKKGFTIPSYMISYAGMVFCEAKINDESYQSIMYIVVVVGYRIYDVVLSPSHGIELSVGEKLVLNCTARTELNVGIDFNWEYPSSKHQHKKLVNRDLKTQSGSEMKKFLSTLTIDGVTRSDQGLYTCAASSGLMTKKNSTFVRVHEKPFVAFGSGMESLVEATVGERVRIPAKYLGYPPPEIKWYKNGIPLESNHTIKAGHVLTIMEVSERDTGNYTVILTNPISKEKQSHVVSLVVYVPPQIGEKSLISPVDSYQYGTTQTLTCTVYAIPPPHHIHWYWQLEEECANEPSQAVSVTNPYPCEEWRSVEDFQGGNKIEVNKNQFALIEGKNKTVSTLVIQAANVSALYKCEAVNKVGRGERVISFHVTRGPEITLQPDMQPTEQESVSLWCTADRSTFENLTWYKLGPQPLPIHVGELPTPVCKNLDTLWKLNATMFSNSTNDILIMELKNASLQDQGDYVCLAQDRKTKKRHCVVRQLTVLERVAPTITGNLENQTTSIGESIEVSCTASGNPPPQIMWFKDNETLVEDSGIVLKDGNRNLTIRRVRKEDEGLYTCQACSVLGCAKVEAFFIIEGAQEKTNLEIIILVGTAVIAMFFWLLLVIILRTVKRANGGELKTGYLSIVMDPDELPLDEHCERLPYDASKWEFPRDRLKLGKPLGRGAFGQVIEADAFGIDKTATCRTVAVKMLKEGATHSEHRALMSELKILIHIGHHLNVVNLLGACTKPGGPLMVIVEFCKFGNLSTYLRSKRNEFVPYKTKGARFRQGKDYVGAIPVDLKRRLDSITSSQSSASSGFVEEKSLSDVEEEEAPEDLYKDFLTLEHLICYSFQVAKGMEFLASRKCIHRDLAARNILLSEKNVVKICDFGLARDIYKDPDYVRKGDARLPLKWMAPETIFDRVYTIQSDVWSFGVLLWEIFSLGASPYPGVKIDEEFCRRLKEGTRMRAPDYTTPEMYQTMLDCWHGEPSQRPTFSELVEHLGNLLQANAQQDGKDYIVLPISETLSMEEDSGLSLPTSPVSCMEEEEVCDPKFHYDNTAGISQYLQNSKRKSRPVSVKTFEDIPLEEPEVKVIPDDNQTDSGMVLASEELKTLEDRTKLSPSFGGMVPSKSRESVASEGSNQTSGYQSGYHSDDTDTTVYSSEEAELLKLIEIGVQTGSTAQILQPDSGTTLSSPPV

[3] = first of two independent trials
[4] = second of two independent trials

Sequence of FGFR1 (P11362 398-822 limits assumed): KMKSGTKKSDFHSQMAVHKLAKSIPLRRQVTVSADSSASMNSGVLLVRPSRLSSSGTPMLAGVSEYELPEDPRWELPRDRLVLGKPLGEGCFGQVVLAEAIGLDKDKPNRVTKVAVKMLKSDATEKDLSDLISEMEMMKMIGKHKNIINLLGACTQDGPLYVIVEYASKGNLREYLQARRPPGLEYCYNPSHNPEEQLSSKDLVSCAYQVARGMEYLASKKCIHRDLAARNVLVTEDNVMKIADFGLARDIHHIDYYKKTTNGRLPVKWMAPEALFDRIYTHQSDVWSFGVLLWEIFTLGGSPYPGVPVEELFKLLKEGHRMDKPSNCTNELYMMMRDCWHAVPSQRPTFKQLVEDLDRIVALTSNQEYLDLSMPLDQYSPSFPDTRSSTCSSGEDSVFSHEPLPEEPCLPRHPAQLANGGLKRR

CCC(=O)OCN1C(=O)C=CC1=O [compound 19630]
% Inhibition [1, 3]: 2% | Mean % Inhibition [1]: 0% | % Inhibition [1, 4]: −2% | % Inhibition [2, 3]: 90% | Mean % Inhibition [2]: 90% | % Inhibition [2, 4]: 91%

O=C1C(=Cc2ccccc2)C(NC2CCCCC2)c2ccccc21 (stereo not drawn) [compound 150117]
% Inhibition [1, 3]: 2% | Mean % Inhibition [1]: 5% | % Inhibition [1, 4]: 7% | % Inhibition [2, 3]: 28% | Mean % Inhibition [2]: 26% | % Inhibition [2, 4]: 24%

COc1ccc(CC2C(=O)NC(C)C(=O)N(C)C3Cc4ccc(cc4)Oc4cc(ccc4O)CC(C(=O)NC(C)C(=O)NC(C)C(=O)N2C)N(C)C3=O)cc1 (stereo not drawn) [compound 259969]
% Inhibition [1, 3]: 3% | Mean % Inhibition [1]: 3% | % Inhibition [1, 4]: 3% | % Inhibition [2, 3]: 0% | Mean % Inhibition [2]: 5% | % Inhibition [2, 4]: 9%

COc1cc2cc(c1Cl)N(C)C(=O)CC(OC(=O)C(C)C)C1(C)OC1C(C)C1CC(O)(NC(=O)O1)C(OC)/C=C/C=C(\C)C2 (stereo not drawn) [compound 292222]
% Inhibition [1, 3]: 2% | Mean % Inhibition [1]: 3% | % Inhibition [1, 4]: 5% | % Inhibition [2, 3]: 8% | Mean % Inhibition [2]: 7% | % Inhibition [2, 4]: 7%

CC1CCN(CC[S-])CC1.O.O.[Cl][Pt+] [compound 292596]
% Inhibition [1, 3]: 4% | Mean % Inhibition [1]: 4% | % Inhibition [1, 4]: 4% | % Inhibition [2, 3]: 9% | Mean % Inhibition [2]: 14% | % Inhibition [2, 4]: 18%
